From US10196401B2, “Spiro-lactam NMDA receptor modulators and uses thereof” (Aptinyx Inc., priority 2016, dated 2019)
Like-named read-outs stand apart in the source and are kept apart here.

Tests used:
[1] = Plasma protein binding, rat; format: in vitro ADME; conditions: read-out: plasma protein binding (% bound) (converted)
Procedure: (§1) Unbound drug concentration in the brain was also investigated, and plasma protein binding assays were conducted. The following table (% bound) indicates results for Compound A.
(§2) Unbound drug concentration in the brain was also investigated, and plasma protein binding assays were conducted. The following table (% bound) indicates results for Compound B.

[2] = Microsomal stability, rat; format: in vitro ADME
Procedure: Microsomal and plasma stability of Compound A was investigated. The following table indicates the percent of Compound A remaining after 60 minutes.
Microsomal and plasma stability of Compound B was investigated. The following table indicates the percent of Compound B remaining after 60 minutes.

[3] = biological target: NMDAR2C (Homo sapiens, UniProt Q14957); test: Potentiation of [3H]MK-801 binding, NMDAR2C; set-up: species or system rat; conditions: for % 1 mM Glycine: relative to 1 mM glycine
[4] = system: Sprague Dawley rats; test: Bennett model of mechanical analgesia (paw withdrawal threshold); format: in vivo, rat; conditions: single dose of 10 mg/kg PO; 1 hr, 24 hrs and 1 week post-dosing
Procedure: Bennett G J, Xie Y K, “A peripheral mononeuropathy in rat that produces disorders of pain sensation like those seen in man,” Pain 33:87-107, 1988. […] Vehicle animals receive the surgery and then receive vehicle rather than test compound. Animals were tested 1 hr, 24 h and 1 wk post-test compound or vehicle administration.
Male 2-3 month old Sprague Dawley rats were used. Harlan was the supplier for all studies. Rats were housed in Lucite cages with aspen wood chip bedding, maintained on a 12:12 light:dark cycle (lights on at 5 AM), and given ad libitum access to Purina lab chow (USA) and tap water throughout the study.
Rats were anesthetized using inhaled isoflurane (2.5%). Spared nerve injury surgery was performed as previously described (Bennett and Xie, 1988). An incision (˜1.5 cm in length) was made with a scalpel blade dorsally through skin on the right hindlimb, parallel and posterior to femur. Using a small pointed hemostat, the biceps femoris and gluteus superficialis muscles were separated. Using curved blunt forceps, the common sciatic nerve was isolated and exposed. For the mechanical analgesia studies, the whole sciatic nerve was ligated. Using hemostats/forceps and chromic gut (5-0), the nerve was loosely ligated with a square knot; 3 ligatures, 1 mm apart were placed on the nerve. […] For the thermal analgesia studies, the common peroneal and tibial branches of the sciatic nerve were ligated and cut, and the sural branch was spared. See Decosterd I, Woolf C J, “Spared nerve injury: an animal model of persistent peripheral neuropathic pain,” Pain 87:149-158, 2000. Testing occurred 1-2 weeks post-surgery.
During testing, rats were acclimated to the surface of a suspended wire mesh grid (1 cm×1 cm, with the wire being 0.3 cm in diameter) for 15-20 min. Starting from the smallest, each Von Frey filament was pressed perpendicularly to the plantar surface of the affected (ipsilateral) hindpaw until slightly bent and then held for 6 second. […]

[5] = biological target: NMDAR2A (Homo sapiens, UniProt Q12879); test: Potentiation of [3H]MK-801 binding, NMDAR2A; set-up: species or system rat; conditions: for Conclusion / % 1 mM Glycine: NMDAR2A binding profile; for % 1 mM Glycine: relative to 1 mM glycine; for potentiation of [3H]MK-801 binding, subtype preference in words: NR2A, FIG. 2 / FIG. 6
Procedure: (§3) Assays were conducted as described by Moskal et al., “GLYX-13: a monoclonal antibody-derived peptide that acts as an N-rnethyl-D-aspartate receptor modulator,” Neuropharmacology, 49, 1077-87, 2005. The potentiation of [^3H]MK-801 binding (5 nrM; 22.5 Ci/mmol) to well washed rat cortical membranes (200 μg) was measured under non-equilibrium conditions (15 min @ 25° C.) in the presence of increasing concentrations of Compound A.
(§4) Assays were conducted as described above in Example 5, by Moskal et al. (2005).

[6] = Bioavailability and CSF/brain/plasma distribution after PO dosing; format: in vivo, Sprague Dawley rats; conditions: for Kp / bioavailability: Sprague Dawley, rat, PO administration (Compound A 10 mg/kg); for bioavailability: plasma, read-out: Bioavailablity (% F); for oral bioavailability, in words / proportion able to get to the CSF and brain, in words: comparative statement, comparator not named
Procedure: The bioavailablity of Compound A was investigated following PO administration. CSF, brain and plasma samples were analyzed following dosing with compound A (10 mg/kg). The following table indicates the bioavailablity and CSF/plasma and brain/plasma ratios.
Sprague Dawley rats were dosed intravenously with 2 mg/kg of Compound A. A second group of Sprague Dawley rats was dosed per os with 10 mg/kg of compound A. Plasma samples were drawn over a 24 h period and analyzed for Compound A.
In another experiment, Sprague Dawley rats were dosed per os with 10 mg/kg of Compound A. Plasma, brain, and CSF samples were analyzed at various time points over a 24 hour period. […]

[7] = Plasma protein binding, human; format: in vitro ADME; conditions: read-out: plasma protein binding (% bound) (converted)
Procedure: as §1, §2

[8] = biological target: NMDAR2D (Homo sapiens, UniProt O15399); test: Potentiation of [3H]MK-801 binding, NMDAR2D; set-up: species or system rat; conditions: for Conclusion / % 1 mM Glycine: NMDAR2D binding profile; for % 1 mM Glycine: relative to 1 mM glycine; for potentiation of [3H]MK-801 binding, subtype preference in words: NR2D, FIG. 2 / FIG. 6
Procedure: as §3, §4

[9] = CSF/plasma, read-out: CSF/plasma ratio
[10] = brain/plasma, read-out: Brain/plasma ratio

Sequence of NMDAR2C (Q14957 20-1233, species assumed, other chains not shown): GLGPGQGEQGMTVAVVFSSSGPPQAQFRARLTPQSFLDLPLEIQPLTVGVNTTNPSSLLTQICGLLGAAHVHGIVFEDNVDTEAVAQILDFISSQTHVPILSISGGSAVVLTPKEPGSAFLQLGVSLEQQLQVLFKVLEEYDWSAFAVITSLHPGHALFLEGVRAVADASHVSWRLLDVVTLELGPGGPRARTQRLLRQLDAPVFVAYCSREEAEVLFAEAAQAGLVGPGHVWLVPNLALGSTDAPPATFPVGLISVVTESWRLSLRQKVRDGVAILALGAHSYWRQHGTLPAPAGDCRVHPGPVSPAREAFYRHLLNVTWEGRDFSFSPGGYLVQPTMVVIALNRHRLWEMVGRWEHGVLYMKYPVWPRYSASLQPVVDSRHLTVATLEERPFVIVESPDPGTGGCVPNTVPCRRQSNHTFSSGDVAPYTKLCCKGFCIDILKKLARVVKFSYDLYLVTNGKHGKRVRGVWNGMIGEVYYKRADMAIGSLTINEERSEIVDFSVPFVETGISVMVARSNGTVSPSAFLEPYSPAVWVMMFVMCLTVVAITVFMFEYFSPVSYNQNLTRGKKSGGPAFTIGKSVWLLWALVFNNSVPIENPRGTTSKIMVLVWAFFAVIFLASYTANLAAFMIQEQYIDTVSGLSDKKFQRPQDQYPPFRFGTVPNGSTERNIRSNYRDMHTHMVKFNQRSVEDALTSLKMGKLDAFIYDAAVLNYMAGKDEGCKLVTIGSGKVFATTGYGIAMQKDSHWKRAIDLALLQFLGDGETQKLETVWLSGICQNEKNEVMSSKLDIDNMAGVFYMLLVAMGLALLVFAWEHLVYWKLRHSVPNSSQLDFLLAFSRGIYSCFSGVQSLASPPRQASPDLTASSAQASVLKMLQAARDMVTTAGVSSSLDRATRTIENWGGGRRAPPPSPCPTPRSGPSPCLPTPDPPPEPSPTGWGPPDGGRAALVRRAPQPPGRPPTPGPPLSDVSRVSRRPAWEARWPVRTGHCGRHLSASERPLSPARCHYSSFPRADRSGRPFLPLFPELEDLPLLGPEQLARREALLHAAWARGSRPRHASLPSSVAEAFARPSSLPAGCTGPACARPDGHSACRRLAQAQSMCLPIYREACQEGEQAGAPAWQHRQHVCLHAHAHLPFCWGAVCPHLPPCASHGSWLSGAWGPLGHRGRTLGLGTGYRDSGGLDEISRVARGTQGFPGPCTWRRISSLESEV
Sequence of NMDAR2A (Q12879 23-1464, species assumed, other chains not shown): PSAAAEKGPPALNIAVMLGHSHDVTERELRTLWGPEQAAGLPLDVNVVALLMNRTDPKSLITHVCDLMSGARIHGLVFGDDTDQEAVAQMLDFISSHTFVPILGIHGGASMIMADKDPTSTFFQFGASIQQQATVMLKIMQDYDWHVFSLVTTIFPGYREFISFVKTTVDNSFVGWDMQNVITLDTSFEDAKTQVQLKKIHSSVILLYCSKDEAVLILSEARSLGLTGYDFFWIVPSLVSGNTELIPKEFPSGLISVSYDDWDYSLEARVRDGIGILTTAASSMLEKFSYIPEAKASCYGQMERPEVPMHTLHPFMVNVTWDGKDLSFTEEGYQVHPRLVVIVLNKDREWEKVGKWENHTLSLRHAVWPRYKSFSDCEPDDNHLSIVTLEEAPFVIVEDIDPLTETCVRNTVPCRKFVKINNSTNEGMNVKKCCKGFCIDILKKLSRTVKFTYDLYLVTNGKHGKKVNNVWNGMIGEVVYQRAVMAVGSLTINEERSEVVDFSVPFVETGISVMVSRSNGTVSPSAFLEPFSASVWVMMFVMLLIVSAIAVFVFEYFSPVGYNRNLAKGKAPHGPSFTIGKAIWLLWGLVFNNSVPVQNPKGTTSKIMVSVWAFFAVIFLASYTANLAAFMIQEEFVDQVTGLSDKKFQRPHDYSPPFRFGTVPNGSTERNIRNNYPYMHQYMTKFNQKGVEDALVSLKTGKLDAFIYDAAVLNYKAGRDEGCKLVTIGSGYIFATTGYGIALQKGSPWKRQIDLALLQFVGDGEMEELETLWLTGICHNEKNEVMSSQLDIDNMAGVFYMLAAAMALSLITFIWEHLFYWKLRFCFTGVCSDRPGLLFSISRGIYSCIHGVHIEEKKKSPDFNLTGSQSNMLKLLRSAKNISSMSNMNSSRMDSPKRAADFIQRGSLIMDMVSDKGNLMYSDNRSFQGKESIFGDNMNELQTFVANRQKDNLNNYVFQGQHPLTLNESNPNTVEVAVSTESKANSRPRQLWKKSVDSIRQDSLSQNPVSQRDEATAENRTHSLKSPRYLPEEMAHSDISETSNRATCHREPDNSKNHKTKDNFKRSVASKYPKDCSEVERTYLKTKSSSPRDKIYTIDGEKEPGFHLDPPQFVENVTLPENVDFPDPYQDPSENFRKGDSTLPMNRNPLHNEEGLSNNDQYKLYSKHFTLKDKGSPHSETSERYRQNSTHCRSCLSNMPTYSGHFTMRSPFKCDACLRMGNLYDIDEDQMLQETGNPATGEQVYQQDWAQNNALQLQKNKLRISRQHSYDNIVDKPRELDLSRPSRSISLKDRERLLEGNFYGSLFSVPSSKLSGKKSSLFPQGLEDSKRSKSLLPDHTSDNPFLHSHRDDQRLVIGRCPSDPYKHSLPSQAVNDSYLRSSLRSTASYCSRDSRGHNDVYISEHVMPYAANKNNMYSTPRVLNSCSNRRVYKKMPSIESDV
Sequence of NMDAR2D (O15399 28-1336, species assumed, other chains not shown): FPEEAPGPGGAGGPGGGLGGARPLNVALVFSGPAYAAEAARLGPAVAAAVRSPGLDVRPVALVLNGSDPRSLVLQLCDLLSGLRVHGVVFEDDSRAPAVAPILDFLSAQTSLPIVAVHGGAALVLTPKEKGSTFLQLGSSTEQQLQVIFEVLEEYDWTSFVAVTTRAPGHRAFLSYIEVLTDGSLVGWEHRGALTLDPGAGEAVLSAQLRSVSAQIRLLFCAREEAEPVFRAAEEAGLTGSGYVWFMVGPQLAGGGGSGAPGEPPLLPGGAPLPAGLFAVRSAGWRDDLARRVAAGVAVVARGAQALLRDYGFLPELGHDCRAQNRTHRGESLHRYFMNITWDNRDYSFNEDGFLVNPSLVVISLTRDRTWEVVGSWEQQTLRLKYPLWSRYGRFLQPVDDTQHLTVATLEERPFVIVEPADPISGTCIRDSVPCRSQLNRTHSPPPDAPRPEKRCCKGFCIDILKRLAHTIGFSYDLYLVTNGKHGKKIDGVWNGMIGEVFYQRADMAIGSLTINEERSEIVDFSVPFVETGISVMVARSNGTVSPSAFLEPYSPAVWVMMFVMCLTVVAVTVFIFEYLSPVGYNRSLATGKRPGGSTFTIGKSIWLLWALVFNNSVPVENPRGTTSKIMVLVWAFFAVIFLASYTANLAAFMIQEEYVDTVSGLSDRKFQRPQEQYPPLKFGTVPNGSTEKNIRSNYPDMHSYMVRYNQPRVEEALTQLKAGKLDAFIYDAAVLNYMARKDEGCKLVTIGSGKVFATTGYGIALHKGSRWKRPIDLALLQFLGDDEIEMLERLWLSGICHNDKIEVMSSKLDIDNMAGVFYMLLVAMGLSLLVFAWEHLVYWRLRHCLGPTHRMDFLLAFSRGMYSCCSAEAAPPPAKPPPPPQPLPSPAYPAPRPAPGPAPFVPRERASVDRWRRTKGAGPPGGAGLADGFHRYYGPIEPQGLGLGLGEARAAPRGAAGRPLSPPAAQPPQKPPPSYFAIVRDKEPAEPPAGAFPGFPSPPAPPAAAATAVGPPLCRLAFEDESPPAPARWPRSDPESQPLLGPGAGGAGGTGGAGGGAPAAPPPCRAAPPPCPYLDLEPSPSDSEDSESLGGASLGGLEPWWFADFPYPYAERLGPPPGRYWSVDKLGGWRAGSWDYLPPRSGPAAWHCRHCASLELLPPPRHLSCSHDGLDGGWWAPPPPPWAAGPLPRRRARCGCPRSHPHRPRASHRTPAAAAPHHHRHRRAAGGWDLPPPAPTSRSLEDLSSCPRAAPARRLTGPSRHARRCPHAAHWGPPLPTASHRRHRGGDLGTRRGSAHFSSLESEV

fraction unbound [1] | Microsomal stability, percent remaining after 60 minutes [2] [%] | Conclusion ([3]; NMDAR2C binding profile) | % 1 mM Glycine ([3]; NMDAR2C binding profile) [%] | potentiation of [3H]MK-801 binding, subtype preference in words ([3]; NR2C, FIG. 6) | Conclusion [5] | % 1 mM Glycine [5] [%] | potentiation of [3H]MK-801 binding, subtype preference in words [5] | Kp [6, 9] | Kp [6, 10] | bioavailability [6] [%] | oral bioavailability, in words [6] | fraction unbound [7] | Conclusion [8] | % 1 mM Glycine [8] [%] | potentiation of [3H]MK-801 binding, subtype preference in words [8] | EC50 ([3]; NMDAR2C binding profile, wild-type) [nM] | SMILES | mechanical analgesic effect in the Bennett model [4] | proportion able to get to the CSF and brain, in words [6]
0.802 | 81 | WT2C agonist | 85.37 | lower potency in NR2A and NR2C | WT2A agonist | 24.48 | lower potency in NR2A and NR2C | 0.7 | 0.18 | 38 | lower oral bioavailability | 0.712 | agonist | 66.21 | highly NR2B and NR2D preferring | – | CC(C)CN1CCC[C@@]12CN([C@H](C(N)=O)[C@@H](C)O)C2=O [Compound B, (2S,3R)-3-hydroxy-2-((S)-5-isobutyl-1-oxo-2,5-diazaspiro[3.4]octan-2-yl)butanamide] | produced a mechanical analgesic effect | a higher proportion is able to get to the CSF and brain
0.701 | 65 | WT2C agonist | 66.21 | – | WT2A agonist | 47.42 | highly NR2A preferring | 0.65 | 0.19 | 42 | lower oral bioavailability | 0.741 | WT2D no | 0 | no binding to NR2D | 1.51 | CC(C)CN1CCC[C@]12CN([C@H](C(N)=O)[C@@H](C)O)C2=O [Compound A, (2S,3R)-3-hydroxy-2-((R)-5-isobutyl-1-oxo-2,5-diazaspiro[3.4]octan-2-yl)butanamide] | produced a mechanical analgesic effect | a higher proportion is able to get to the CSF and brain
